# Assay results published in patent US8673914B2, “Use of phosphodiesterase inhibitors for treating multidrug resistance” (St. John's University, priority 2011, dated 2014).
# Tests used:
# [1] = system: ABCG2-482-R2 (ABCG2); experiment: MTT cytotoxicity/reversal assay (Example 1); conditions: +10 μM reversal agent
# Description: The KB-C2 and KB-3-1 were kindly provided by Dr. Akiyama (Kagoshima University, Japan). HEK293-pcDNA3.1 and wild-type HEK/ABCG2 transfected cells were established by selection with G418 after transfecting HEK293 with either (1) empty pcDNA3.1 vector or (2) pcDNA3.1 vector containing full length of ABCG2 coding arginine (R) at amino acid position 482, and were then cultured in a medium with 2 mg/ml of G418 (ABCG2-482-R2 cells). Similarly, the HEK/MRP1 (ABCC1) and HEK/ABCB1 cells were generated by transfecting the HEK293 cells with either the MRP1 expression vector or the ABCB1 expression vector. All of the cell lines were grown in Dulbecco's modified Eagle's medium (DMEM) supplemented with 10% bovine serum, 100 units/ml penicillin, and […] streptomycin in a humidified incubator containing 5% CO2 at 37° C.
# (§1) The MTT assay was used to assess cytotoxicity. The cultured cells were harvested with trypsin and resuspended in a final concentration of 4×10^3 cells/well for KB-3-1; 7.5×10^3 cells/well for KB-C2; and 8×10^3 for all of the other cell lines used in this study. Cells were seeded evenly in 96-well multiplates. […] After 68 h of incubation, 20 μl of the MTT solution (4 mg/ml) was added to each well, and the plate was further incubated for 4 h at 37° C., allowing viable cells to convert the yellow-colored MTT into dark-blue formazan crystals. Subsequently, the medium was discarded, and 100 μl of DMSO was added into each well to dissolve the formazan crystals, generating purple color. The absorbance was determined at 570 nm by an OPSYS Microplate Reader from DYNEX Technologies, Inc. (Chantilly, Va.). […] The degree of the reversal of multidrug resistance (MDR) was calculated by dividing the IC50 of an anticancer drug, e.g., an antineoplastic or chemotherapeutic drug (agent, compound), in a cell type in the absence of a reversal agent by the IC50 of the anticancer drug in the same cell type in the presence of the reversal agent. The IC50 values were calculated from survival curves using the Bliss method.
# [2] = target: T1, ABCB1 (Homo sapiens, UniProt P08183); experiment: Vi-sensitive ATPase assay of ABCB1 (Example 1); assay type: biochemical; conditions: ABCB1 membrane vesicles; read-out: concentration required for 50% stimulation of ATPase activity
# T1 construct: made in house; host or cells: High Five insect cells (membrane vesicles / crude membranes)
# Description: The Vi-sensitive ATPase activity of ABCB1 in membrane vesicles of High Five™ insect cells was measured as follows. The membrane vesicles ([…]) were incubated in ATPase assay buffer (50 mM MES [pH 6.8], 50 mM KCl, 5 mM sodium azide, 2 mM EGTA, 2 mM dithiothreitol, 1 mM ouabain, and 10 mM MgCl2) with or without 0.3 mM orthovanadate (freshly prepared) at 37° C. for 5 min, then incubated with different concentrations of drug at 37° C. for 3 min. The ATPase reaction was started by the addition of 5 mM ATP, and the total volume was 0.1 ml. After incubation at 37° C. for 20 min, the reactions were stopped by the addition of 0.1 ml of 5% SDS solution and vortexed and kept at room temperature. The liberated Pi was measured as described in Ambudkar et al., supra.
# [3] = system: any cell lines tested; experiment: MTT assay, vardenafil or tadalafil alone; assay type: cell-based; conditions: concentrations of up to 20 μM
# Description: as §1
# [4] = target: T1, ABCB1; experiment: Photoaffinity labeling with [^125I]-IAAP (Example 1); assay type: binding; conditions: for IC50: ABCB1 membrane vesicles
# Description: The photoaffinity labeling of ABCB1 with [^125I]-IAAP was performed as described in Sauna et al. (2000) Proc. Natl. Acad. Sci. USA 97:2515-20. The membrane vesicles from High Five™ insect cells expressing ABCB1 (50 μg of protein) were incubated at room temperature with different concentrations of drugs in the ATPase assay buffer with [^125I]-IAAP (7 nM) for 5 min under subdued light. […] Subsequently, the samples were run in a 7% Tris-acetate NuPAGE gel on SDS-PAGE; and the gels were dried and exposed to Bio-Max MR film (Eastman Kodak Co., Rochester, N.Y.) at −70° C. for 8-12 h. The radioactivity incorporated into the ABCB1 band was quantified using the STORM 860 PhosphorImager system and ImageQuaNT (Molecular Dynamics, CA).
# [5] = system: HEK/MRP1 (ABCC1); experiment: MTT cytotoxicity/reversal assay (Example 1); assay type: cell-based; conditions: +10 μM reversal agent
# Description: The KB-C2 and KB-3-1 were kindly provided by Dr. Akiyama (Kagoshima University, Japan). […] Similarly, the HEK/MRP1 (ABCC1) and HEK/ABCB1 cells were generated by transfecting the HEK293 cells with either the MRP1 expression vector or the ABCB1 expression vector. All of the cell lines were grown in Dulbecco's modified Eagle's medium (DMEM) supplemented with 10% bovine serum, 100 units/ml penicillin, and […] streptomycin in a humidified incubator containing 5% CO2 at 37° C.
# as §1
# [6] = system: ABCB1 expression in KB-C2 cells; experiment: Western blot and immunofluorescence of ABCB1; assay type: cell-based, human; conditions: for protein level of ABCB1 (Western blot): 10 μM, 36 and 72 h; for expression of ABCB1 in the membrane (immunofluorescence): 72 h
# Description: Following incubation, the cells were harvested and rinsed twice with ice-cold PBS, and total cell lysates were collected with cell lysis buffer (1×PBS, 1% Nonidet P-40, 0.5% sodium deoxycholate, 0.1% SDS, 100 μg/ml phenylmethylsulfonyl fluoride, 10 μg/ml aprotinin, 10 μg/ml leupeptin) for 30 min with gentle rocking, and clarified by centrifugation at 12,000 rpm for 10 min at 4° C. Equal amounts (100 μg of protein) of cell lysates were resolved by sodium dodecyl sulfate polyacrylamide gel electrophoresis (SDS-PAGE) and electrophoretically transferred onto polyvinylidene fluoride (PVDF) membranes. After incubation in a blocking solution containing 5% nonfat milk in TBST buffer (10 mM Tris-HCL (pH 8.0), 150 mM NaCl, and 0.1% Tween 20) for 1 h at room temperature, membranes were immunoblotted overnight with primary monoclonal antibodies C219 (1:200) against ABCB1, or 14C10 (1:200) against GAPDH, at 4° C. Subsequently, the membranes were washed three times for 15 min with TBST buffer and incubated at room temperature for 2 h with HRP-conjugated secondary antibody at 1:1000 dilutions. The membranes underwent three additional washes for 15 min with TBST buffer and the protein-antibody complexes were visualized by the enhanced PHOTOTOPE® HRP Detection Kit (Cell Signaling Technology, Inc.) and exposed to Kodak medical X-ray processor (Eastman Kodak Co., Rochester, N.Y.). […] Propidium iodide was used for nuclear staining.
# T1 sequence (P08183 whole entry): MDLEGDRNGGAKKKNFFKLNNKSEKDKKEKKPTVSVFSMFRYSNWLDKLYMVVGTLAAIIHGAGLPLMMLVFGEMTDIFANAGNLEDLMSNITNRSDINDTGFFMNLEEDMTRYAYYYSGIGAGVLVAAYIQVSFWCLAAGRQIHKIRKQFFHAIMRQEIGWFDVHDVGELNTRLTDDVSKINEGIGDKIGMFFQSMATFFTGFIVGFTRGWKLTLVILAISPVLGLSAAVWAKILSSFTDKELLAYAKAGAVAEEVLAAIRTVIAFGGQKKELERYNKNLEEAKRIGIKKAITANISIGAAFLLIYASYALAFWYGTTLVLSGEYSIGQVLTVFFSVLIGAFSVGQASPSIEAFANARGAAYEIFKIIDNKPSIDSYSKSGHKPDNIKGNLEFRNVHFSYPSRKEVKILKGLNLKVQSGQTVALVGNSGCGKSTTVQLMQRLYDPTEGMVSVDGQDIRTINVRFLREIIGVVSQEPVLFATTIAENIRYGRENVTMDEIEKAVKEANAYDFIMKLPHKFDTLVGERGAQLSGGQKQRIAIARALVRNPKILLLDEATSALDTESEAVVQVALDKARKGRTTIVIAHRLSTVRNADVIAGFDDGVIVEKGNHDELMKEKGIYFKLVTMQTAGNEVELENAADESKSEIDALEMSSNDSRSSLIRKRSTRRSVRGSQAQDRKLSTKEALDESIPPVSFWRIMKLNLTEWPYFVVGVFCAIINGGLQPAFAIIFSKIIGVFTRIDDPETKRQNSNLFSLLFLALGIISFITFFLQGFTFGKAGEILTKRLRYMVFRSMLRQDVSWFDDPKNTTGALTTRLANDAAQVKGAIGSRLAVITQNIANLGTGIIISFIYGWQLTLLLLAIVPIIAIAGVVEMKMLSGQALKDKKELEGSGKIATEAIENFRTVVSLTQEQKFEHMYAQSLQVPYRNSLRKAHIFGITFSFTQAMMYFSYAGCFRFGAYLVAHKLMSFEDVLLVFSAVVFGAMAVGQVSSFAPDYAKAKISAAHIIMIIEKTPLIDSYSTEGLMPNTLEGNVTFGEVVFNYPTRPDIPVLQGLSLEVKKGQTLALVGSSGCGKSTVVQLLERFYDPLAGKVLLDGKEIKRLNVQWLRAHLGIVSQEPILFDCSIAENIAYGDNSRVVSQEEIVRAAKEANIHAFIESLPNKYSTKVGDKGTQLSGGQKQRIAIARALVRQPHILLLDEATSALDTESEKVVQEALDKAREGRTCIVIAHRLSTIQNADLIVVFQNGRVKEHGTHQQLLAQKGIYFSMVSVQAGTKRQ
Compound,"fold reversal, SN-38 [1]",EC50 [2],growth inhibition by the PDE5 inhibitor alone [3],IC50 [4],"fold reversal, vincristine [5]",protein level of ABCB1 (Western blot) [6],expression of ABCB1 in the membrane (immunofluorescence) [6],"inhibition at 5 min, 10 µM ([4]; pH 6.8, probe [125I]-IAAP (7 nM), 10 μM, read-out: inhibition of [^125I]-IAAP photolabeling)"
"CN1CC(=O)N2[C@H](c3ccc4c(c3)OCO4)c3[nH]c4ccccc4c3C[C@@H]2C1=O [Tadalafil, tadalafil]",(1.04),> 25000 nM,neither vardenafil nor tadalafil inhibited the growth of any cell lines tested,> 50000 nM,(1.03),not significantly altered,neither vardenafil nor tadalafil altered the expression of ABCB1 in the membrane,–
"CCCc1nc(C)c2c(=O)[nH]c(-c3cc(S(=O)(=O)N4CCN(CC)CC4)ccc3OCC)nn12 [Vardenafil, vardenafil]",(0.97),2690 ± 720 nM,neither vardenafil nor tadalafil inhibited the growth of any cell lines tested,690 nM,(1.07),not significantly altered,neither vardenafil nor tadalafil altered the expression of ABCB1 in the membrane,90%
